Test results from PubChem BioAssay AID179 (DTP/NCI, 2004).
Several values for one entry are separate records, joined by “and”; a condition that tells them apart may be missing. Equal values may be shown once. Activity calls are given as the source filed them.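 Rule for the calls: active = compounds giving half or more protection of infected cells from virus-caused growth loss, again on retest; inactive = the rest.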 Where a SMILES comes first, the peptide text is derived from it.

Tested on: CEM cells HIV-1 protection, formazan growth assay
Experiment: NCI AIDS Antiviral Assay
Details: for IC50: measured here: growth of uninfected CEM cells
How it was run: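 CEM (human) cells, HIV-1 infected vs uninfected, 5-point dosing, formazan growth read-out. Retest threshold 50% protection.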

Structure (SMILES)	EC50 [µM]	IC50	outcome
CCC(C)C(=O)c1c(O)c(C/C=C(\C)CCC=C(C)C)c(O)c2c(C(O)CC)cc(=O)oc12 (stereo not drawn)	> 200	1.55 µM	–
CCOC(=O)c1c(SCC#N)n(-c2ccccc2)c(=S)n(-c2ccccc2)c1=O	> 200	13.8 µM	–
CN1C(=O)C(Cl)(C#N)C(c2ccccc2)N(C)C1c1ccccc1 (stereo not drawn)	> 200	8.71 µM	–
Cc1cc2c(=O)cc(-c3ccc(C(F)(F)F)cc3)oc2c(C(=O)O)c1C	–	–	inactive
CN(C)Cc1cc(C(=O)/C=C/c2ccc([N+](=O)[O-])cc2)cc(CN(C)C)c1O	> 200	2.82 µM	–
CCOc1ccc(-c2oc(/C=N/NS(=O)(=O)c3ccc(C)cc3)c([N+](=O)[O-])c2-c2ccc(OCC)cc2)cc1	> 3.63	> 3.63 µM	–
N#C/C(=C\c1ccccc1[N+](=O)[O-])C(=O)O	> 603	363 µM	–
C=CCCCCO/N=C/c1c2c(O)c3c(O)c(C)c4c(c3c1O)C(=O)C(C)(O/C=C/C(OC)C(C)C(OC(C)=O)C(C)C(O)C(C)C(O)C(C)/C=C/C=C(\C)C(=O)N2)O4 (stereo not drawn)	> 200	7.41 µM	–
Cc1nc(-c2ccc(Cl)cc2)cn2c1nc1ccccc12	61.7	191 µM	–
O=C1CSC2=NCC3(NN12)c1ccccc1-c1ccccc13	> 200	> 100 µM	–
O=C(NCc1ccc2ccc3cccnc3c2n1)c1ccc[n+](Cc2ccccc2)c1	> 513	24.5 µM	–
CCCCCCCCCCCCCCCCCCN(C)C	> 200	97.7 µM	–
COc1ncc(/C=C2\OC(=O)c3ccccc32)c(OC)n1	> 200	> 200 µM	–
Clc1ccc(C2=C(c3ccccc3)C(c3ccc(Cl)cc3)N3C(=N[C@H]4CCCC[C@@H]43)N2)cc1 (stereo partly drawn)	> 200	20.9 µM	–
CN(C)CCN(C)CCN(C)C.Cc1ccc(S(=O)(=O)[O-])cc1.Cc1ccc(S(=O)(=O)[O-])cc1.[Pd+2]	> 200	10.7 µM	–
CCCCCCCCCCCCCCCCCC1=Nc2ccccc2NC(=O)C1	> 100	> 100 µM	–
O=C(Nc1ccccc1F)c1c(O)nc2sccn2c1=O	> 200	51.3 µM	–
O=C(N=C1C(=O)C2(CCCCC2)C2(N=C(c3ccccc3)OC2=O)C12CCCCC2)c1ccccc1 (stereo not drawn)	> 27.5	10 µM	–
Cc1c2cccc-2c(OCCO)cc2c1[nH]c1ccccc12	> 200	2.88 µM	–
FC(F)(F)c1nc(Cl)nc2nc[nH]c12	> 200	97.7 µM	–
Cc1cc(NC2=CC(=O)C(=O)c3ccccc32)no1	> 200	5.89 µM	–
Cc1c(C)c([N+](=O)[O-])c2c(c1N)C(=O)c1ccccc1C2=O	–	–	inactive
O=c1nc2ccccc2c2n1CCN2	> 95.5	> 95.5 µM	–
COc1cc2c(c(OC)c1OC)C(=O)[C@H]1OC(=O)N[C@@H]21	> 200	> 200 µM	–
COc1ccc(/C=C2/C(=O)NC3SC=C(c4cccc([N+](=O)[O-])c4)N23)cc1 (stereo not drawn)	> 200	83.2 µM	–
O=c1[nH]c(=O)n(C2CC(O)C(CO)O2)cc1OS(=O)(=O)C(F)(F)F (stereo not drawn)	> 661	9.77 µM	–
CCOC(=O)C(=O)NC12CC3CC(CC(C3)C1)C2	> 724	> 724 µM	–

Structure (SMILES)	EC50 [µM]	IC50	outcome
O=C(O)Cn1c(=O)ccc2ccccc21	> 200	> 200 µM	–
COC1O[C@H]2CCN(C(=O)OCc3ccccc3)[C@H]2[C@H]1OCc1ccccc1 (stereo partly drawn)	> 35.5	> 35.5 µM	–
Cc1cc(NS(=O)(=O)c2ccc(Nc3c4ccccc4nc4c(C(=O)Nc5ccc(S(N)(=O)=O)cc5)cccc34)cc2)no1	25.1	50.1 µM	–
COC(=O)c1cc(C(=CCCC(C)[C@H]2CCC3C4CC[C@@H]5CC(F)(F)CC[C@]5(C)C4CC[C@@]32C)c2cc(Cl)c(OC)c(C(=O)OC)c2)cc(Cl)c1OC (stereo partly drawn)	> 100	> 100 µM	–
NC1=NN(c2ccccc2)C(=O)C1C(=O)CCC(=O)Nc1cccc(Cl)c1 (stereo not drawn)	> 339	> 339 µM	–
COC(=O)/C(=N\N)C(C(=O)C(=O)Nc1cccc([N+](=O)[O-])c1)c1nc2ccc(C(=O)c3ccccc3)cc2[nH]c1=O (stereo not drawn)	> 64.6	> 64.6 µM	–
CN1CCCC(C#N)(c2ccccc2)CC1 (stereo not drawn)	–	–	inactive
CCc1c(C#N)c(=O)[nH]c(=O)n1CCN1CCN(C(=O)NCCCCCCNC(=O)N2CCN(CCn3c(CC)c(C#N)c(=O)[nH]c3=O)CC2)CC1	–	–	inactive
Cc1cc(C)c2c(c1)C(=O)/C(=C/c1ccccc1C(=O)O)C2	–	–	inactive
O=[N+]([O-])[O-].O=[N+]([O-])[O-].[Au].[Au].c1ccc([P-]c2ccccc2)cc1.c1ccc([P-]c2ccccc2)cc1	> 4.27	> 4.27 µM	–
CN(C(=O)C12C3(C(=O)C(C)(C)C)C4C5(C#N)C3C1(C(=O)C(C)(C)C)C5C42C(=O)C(C)(C)C)C(C)(C)C (stereo not drawn)	> 52.5	> 52.5 µM	–
COc1ccc(CC(CO)NC(=O)OCc2ccccc2)cc1Oc1ccc(CC(CO)NC(=O)OCc2ccccc2)cc1 (stereo not drawn)	> 200	10 µM	–
CC1=Nc2sc3c(c2C2=NCCN12)CCCC3	> 200	34.7 µM	–
C=CCN1C(N)=C(C#N)C(C#N)(C#N)C1CCC (stereo not drawn)	> 200	151 µM	–
COc1ccc2c(c1)-c1nn(CCCN(C)C)c3ccc([N+](=O)[O-])c(c13)N2	> 537	0.17 µM	inactive
COc1ccc(C(=O)CC(c2ccccc2)[C@H]2C(c3ccc(OC)cc3)=Nc3c(nc(SC)n(C)c3=O)NC2c2ccccc2)cc1 (stereo partly drawn)	> 200	19.1 µM	–
O=C1NC(=O)C(=Cc2ccccc2F)C(=O)N1	> 1070	> 1070 µM	–
CCOC(=O)c1sc(SC)nc1NC(=O)c1ccc(Cl)cc1	> 200	> 200 µM	–
[N-]=[N+]=Nc1cc(=O)oc2ccccc12	> 200	117 µM	–
Nc1n(CC(=O)c2ccccc2)nc2sc(-c3ccccc3)n[n+]12	> 200	10.2 µM	–
CCOC(=O)c1sc2nc1CSc1sc(=S)sc1SCc1nc(sc1C(=O)OCC)-c1nc(c(C(=O)OCC)s1)CSc1sc(=S)sc1SCc1nc-2sc1C(=O)OCC	> 200	> 200 µM	–
O=S(=O)(O)c1cc(Cl)cc(Cc2cc(Cl)cc(S(=O)(=O)O)c2O)c1O	–	–	active
C/C(=N/NC(=S)Nc1ccccc1C)c1ccccn1	> 0.2	0.0692 µM	–
CCOC(=O)C1C(=O)CC(O)(c2ccccc2)C(C(=O)OCC)C1c1ccc(OC)cc1 (stereo not drawn)	> 200	5.01 µM	–
N#C/C(=C\c1ccc2[nH]ccc2c1)C(=O)NCCCCNC(=O)/C(C#N)=C/c1ccc2[nH]ccc2c1	> 7.94	> 7.94 µM	–
CC(C)=CCC/C(=C/CC/C(C)=C/CCc1ccoc1)C(=O)O	> 295	107 µM	–
CCN(CC)CCC(=O)NC1c2ccc(Cl)cc2Oc2c(C)cccc21 (stereo not drawn)	> 200	9.55 µM	–

Structure (SMILES)	EC50 [µM]	IC50	outcome
CCCCC(=O)N1C(=O)/C(=C\N(C)C)c2cc(C=O)ccc21	> 200	29.5 µM	–
O=C1OC2(O)c3ccccc3C(=O)N2N2CCCC12 (stereo not drawn)	> 692	> 692 µM	–
O=C(/C=C\c1ccc(O)c(O)c1)O[C@@H]1C[C@](O)(C(=O)O)C[C@@H](O)[C@H]1O	> 708	97.7 µM and 355 µM	–
COc1cc(CC2c3cc(OC)c(OC)cc3CCN2C)c(C(=O)O)cc1OC (stereo not drawn)	–	–	inactive
O=C(C1OC1c1cccc([N+](=O)[O-])c1)C12CC3CC(CC(C3)C1)C2 (stereo not drawn)	> 200	3.47 µM	–
[N-]=[N+]=Nc1c(N2CCOCC2)c(Cl)nc2ccccc12	> 200	55 µM	–
Cc1cc(C)c2c(=N)c3ccccc3n(CCCCCCO)c2n1	> 200	1.38 µM	–
COc1cc2c(c(OC)c1OC)-c1ccc(SC)c(=S)cc1[C@@H](NC(C)=O)CC2	–	–	inactive
N#CCCN(c1ccc(/C=C2\N=C(c3ccc(Cl)cc3)OC2=O)cc1)S(=O)(=O)c1ccccc1	> 72.4	> 72.4 µM	–
Clc1ccc(Oc2ccc(N=Cc3ccc(Cl)cc3Cl)cc2Cl)cc1	> 200	5.37 µM	–
O=C(NCCCl)Nc1ccc(S(=O)(=O)c2ccc([N+](=O)[O-])cc2)cc1	> 200	16.2 µM	–
Nc1cccc2cn[nH]c12	> 1480	229 µM	–
O=C(COc1ccc2c(=O)cc(-c3ccc(Cl)cc3)oc2c1)N1CCN(c2ccccc2)CC1	0.813	20.9 µM	–
O=C1NC(Cc2ccc(O)c(O)c2)C(=O)N2CCCC12 (stereo not drawn)	> 200	> 200 µM	–
CC(NC(=O)CNC(=O)C(N)CO)C(=O)NC(CCC(=O)O)C(=O)NC(CCCCN)C(=O)NC(C(=O)NC(CCC(N)=O)C(=O)NC(CCC(=O)O)C(=O)NC(CCC(N)=O)C(=O)NC(CCCN=C(N)N)C(=O)NC(C)C(=O)NC(CC(N)=O)C(=O)NC(C)C(=O)NC(Cc1cnc[nH]1)C(=O)NC(CO)C(=O)O)C(C)O (stereo not drawn) (H-SGAEKTQEQRANAHS-OH; configuration not given here)	> 100	> 100 µM	–
COc1ccc2nc(/C(N)=C\C#N)ccc2c1	> 200	41.7 µM	–
O[C@H]1[C@@H](O)C2(C[C@@H]1Br)OC(COCc1ccccc1)[C@@H](COCc1ccccc1)O2 (stereo partly drawn)	–	–	inactive
COc1cc2c(cc1O)[C@H](Cc1ccc(Oc3cc(C[C@H]4c5cc(OC)c(OC)cc5CCN4C)ccc3OC)cc1)NCC2	–	–	inactive
CCC[CH2][Sn]([CH2]CCC)([O]C(=O)c1cc(OC)c(OC)cc1OC)[O]C(=O)c1cc(OC)c(OC)cc1OC	> 39.8	0.776 µM	–
CC1=C2C3OC(=O)C(C)C3C(O)C[C@@]2(C)C(=O)CC1 (stereo partly drawn)	–	–	inactive
Cc1cc(-c2[nH]c(C(=O)O)cc2I)on1	> 200	> 200 µM	–
Cc1ccc2c(c1)[nH]c(=S)n2/C=C(/C#N)c1ccc([N+](=O)[O-])cc1	> 200	> 200 µM	–
COC(=O)CC12C=CC3(OO1)C(C)(C)CCCC3(C)O2 (stereo not drawn)	> 200	174 µM	–
CC(=O)OC(CC1(C)C(C)CCC23COC(=O)C2=CCCC31)c1ccoc1 (stereo not drawn)	> 69.2	30.2 µM	–
O=C1CC[C@H]2CO[C@H](c3ccccc3)N12	> 200	> 200 µM	–
